Assay results taken from ChEMBL document CHEMBL5360526, “Discovery of BET specific bromodomain inhibitors with a novel scaffold” (Bioorg Med Chem, 2022).

What was measured:
[1] = molecular target: T1, Bromodomain-containing protein 4 (Homo sapiens, UniProt O60885); assay: Inhibition of BRD4 BD2 (unknown origin) using SGRGK(Ac)GGK(Ac)GLGK(Ac) GGAK(Ac)RHRK-biotinylated peptide as substrate incubated for 60 mins by alpha screen assay
[2] = molecular target: T1, Bromodomain-containing protein 4; assay: Inhibition of N-terminal GST-tagged/C-terminal 6His-tagged BRD4 BD1 (47 to 170 residues) (unknown origin) expressed in Escherichia coli BL21 (DE3) using SGRGK(Ac)GGK(Ac)GLGK(Ac) GGAK(Ac)RHRK-biotinylated peptide as substrate incubated for 60 mins by alpha screen assay
[3] = molecular target: Histone acetyltransferase KAT2A (Homo sapiens) (UniProt Q92830); assay: Inhibition of GCN5L2 (unknown origin) assessed as remaining activity
[4] = molecular target: Bromodomain-containing protein 7 (Homo sapiens) (UniProt Q9NPI1); assay: Inhibition of BRD7 (unknown origin) assessed as remaining activity
[5] = molecular target: Chromatin remodeling regulator CECR2 (Homo sapiens) (UniProt Q9BXF3); assay: Inhibition of CECR2 (unknown origin) assessed as remaining activity
[6] = molecular target: E3 ubiquitin-protein ligase TRIM33 (Homo sapiens) (UniProt Q9UPN9); assay: Inhibition of TRIM33 (unknown origin) assessed as remaining activity
[7] = molecular target: Bromodomain-containing protein 9 (Homo sapiens) (UniProt Q9H8M2); assay: Inhibition of BRD9 (unknown origin) assessed as remaining activity
[8] = molecular target: Bromodomain-containing protein 2 (Homo sapiens) (UniProt P25440); assay: Inhibition of BRD2 BD2 (unknown origin) assessed as remaining activity
Chain of Bromodomain-containing protein 2 (Homo sapiens) (P25440 whole entry, looked up): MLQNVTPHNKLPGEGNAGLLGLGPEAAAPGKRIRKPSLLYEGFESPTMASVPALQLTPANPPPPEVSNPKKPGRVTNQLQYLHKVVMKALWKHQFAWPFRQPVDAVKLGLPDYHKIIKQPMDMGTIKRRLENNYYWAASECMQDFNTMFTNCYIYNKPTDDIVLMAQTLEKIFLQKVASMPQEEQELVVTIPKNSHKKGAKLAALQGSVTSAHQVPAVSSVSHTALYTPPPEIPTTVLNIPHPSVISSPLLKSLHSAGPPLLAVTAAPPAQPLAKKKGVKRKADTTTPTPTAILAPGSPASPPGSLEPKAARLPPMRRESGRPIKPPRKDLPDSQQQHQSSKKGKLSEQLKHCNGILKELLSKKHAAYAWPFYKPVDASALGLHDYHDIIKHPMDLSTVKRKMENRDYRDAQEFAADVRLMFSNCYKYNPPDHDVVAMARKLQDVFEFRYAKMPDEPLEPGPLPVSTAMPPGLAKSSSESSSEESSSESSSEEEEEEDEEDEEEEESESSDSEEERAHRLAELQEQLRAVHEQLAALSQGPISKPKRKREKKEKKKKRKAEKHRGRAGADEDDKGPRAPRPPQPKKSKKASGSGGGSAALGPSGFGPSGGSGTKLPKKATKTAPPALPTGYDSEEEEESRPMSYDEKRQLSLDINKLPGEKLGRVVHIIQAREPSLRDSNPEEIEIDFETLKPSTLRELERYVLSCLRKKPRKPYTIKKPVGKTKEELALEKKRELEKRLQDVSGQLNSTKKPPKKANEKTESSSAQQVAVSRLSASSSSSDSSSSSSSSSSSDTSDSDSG

[9] = molecular target: Protein polybromo-1 (Homo sapiens) (UniProt Q86U86); assay: Inhibition of PBRM1 BD2 (unknown origin) assessed as remaining activity
Chain of Protein polybromo-1 (Homo sapiens) (Q86U86 whole entry, the tested form may be a part): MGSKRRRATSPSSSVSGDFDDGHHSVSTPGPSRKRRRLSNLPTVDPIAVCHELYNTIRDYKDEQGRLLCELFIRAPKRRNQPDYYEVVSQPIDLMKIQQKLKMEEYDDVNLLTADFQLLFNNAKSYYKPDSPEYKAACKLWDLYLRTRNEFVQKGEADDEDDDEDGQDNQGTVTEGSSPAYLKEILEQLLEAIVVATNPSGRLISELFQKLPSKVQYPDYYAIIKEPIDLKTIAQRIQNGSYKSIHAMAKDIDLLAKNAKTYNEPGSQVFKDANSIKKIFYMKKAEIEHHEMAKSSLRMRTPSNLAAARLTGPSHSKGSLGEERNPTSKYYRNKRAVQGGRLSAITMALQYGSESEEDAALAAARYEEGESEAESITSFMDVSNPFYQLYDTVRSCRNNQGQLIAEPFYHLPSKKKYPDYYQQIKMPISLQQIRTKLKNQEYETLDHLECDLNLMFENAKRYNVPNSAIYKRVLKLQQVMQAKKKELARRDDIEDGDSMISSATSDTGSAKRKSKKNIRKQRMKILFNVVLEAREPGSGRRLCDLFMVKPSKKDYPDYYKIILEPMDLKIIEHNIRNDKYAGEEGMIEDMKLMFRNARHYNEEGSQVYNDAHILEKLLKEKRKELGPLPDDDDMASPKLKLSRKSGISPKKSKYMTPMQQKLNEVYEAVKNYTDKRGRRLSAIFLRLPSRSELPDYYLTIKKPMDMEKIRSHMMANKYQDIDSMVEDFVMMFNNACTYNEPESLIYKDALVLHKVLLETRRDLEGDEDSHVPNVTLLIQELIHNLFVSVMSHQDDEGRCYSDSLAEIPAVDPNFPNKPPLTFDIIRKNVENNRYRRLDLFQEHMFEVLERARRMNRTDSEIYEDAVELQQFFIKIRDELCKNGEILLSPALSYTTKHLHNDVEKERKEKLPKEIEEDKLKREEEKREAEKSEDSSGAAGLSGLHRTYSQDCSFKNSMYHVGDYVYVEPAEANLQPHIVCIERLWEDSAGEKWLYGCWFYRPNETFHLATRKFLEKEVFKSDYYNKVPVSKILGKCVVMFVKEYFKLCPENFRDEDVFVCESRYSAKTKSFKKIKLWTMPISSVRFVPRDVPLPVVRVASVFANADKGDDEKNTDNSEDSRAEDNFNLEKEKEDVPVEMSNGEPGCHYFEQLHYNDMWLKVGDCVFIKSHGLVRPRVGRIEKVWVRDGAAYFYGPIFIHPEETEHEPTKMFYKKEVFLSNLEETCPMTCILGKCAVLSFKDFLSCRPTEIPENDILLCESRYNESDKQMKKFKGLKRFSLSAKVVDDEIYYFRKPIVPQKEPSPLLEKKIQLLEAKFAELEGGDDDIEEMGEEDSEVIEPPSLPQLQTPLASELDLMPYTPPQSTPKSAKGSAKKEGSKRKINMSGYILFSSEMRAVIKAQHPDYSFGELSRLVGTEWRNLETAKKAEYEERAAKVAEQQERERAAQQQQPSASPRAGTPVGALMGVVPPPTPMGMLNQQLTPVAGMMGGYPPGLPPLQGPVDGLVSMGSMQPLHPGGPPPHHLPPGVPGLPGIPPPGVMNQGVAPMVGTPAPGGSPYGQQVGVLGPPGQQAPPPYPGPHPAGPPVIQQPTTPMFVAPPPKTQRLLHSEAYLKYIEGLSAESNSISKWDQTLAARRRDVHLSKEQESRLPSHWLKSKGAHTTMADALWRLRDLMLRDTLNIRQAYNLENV

[10] = molecular target: Bromodomain and WD repeat-containing protein 1 (Homo sapiens) (UniProt Q9NSI6); assay: Inhibition of WDR9 BD2 (unknown origin) assessed as remaining activity
[11] = molecular target: Nucleosome-remodeling factor subunit BPTF (Homo sapiens) (UniProt Q12830); assay: Inhibition of FALZ (unknown origin) assessed as remaining activity
[12] = molecular target: Transcription intermediary factor 1-alpha (Homo sapiens) (UniProt O15164); assay: Inhibition of TRIM24 (unknown origin) assessed as remaining activity
[13] = molecular target: ATPase family AAA domain-containing protein 2 (Homo sapiens) (UniProt Q6PL18); assay: Inhibition of ATAD2A (unknown origin) assessed as remaining activity
[14] = molecular target: SWI/SNF-related matrix-associated actin-dependent regulator of chromatin subfamily A member 4 (Homo sapiens) (UniProt P51532); assay: Inhibition of SMARCA4 (unknown origin) assessed as remaining activity
[15] = molecular target: SWI/SNF-related matrix-associated actin-dependent regulator of chromatin subfamily A member 2 (Homo sapiens) (UniProt P51531); assay: Inhibition of SMARCA2 (unknown origin) assessed as remaining activity
Chain of SWI/SNF-related matrix-associated actin-dependent regulator of chromatin subfamily A member 2 (Homo sapiens) (P51531 whole entry, the tested form may be a part): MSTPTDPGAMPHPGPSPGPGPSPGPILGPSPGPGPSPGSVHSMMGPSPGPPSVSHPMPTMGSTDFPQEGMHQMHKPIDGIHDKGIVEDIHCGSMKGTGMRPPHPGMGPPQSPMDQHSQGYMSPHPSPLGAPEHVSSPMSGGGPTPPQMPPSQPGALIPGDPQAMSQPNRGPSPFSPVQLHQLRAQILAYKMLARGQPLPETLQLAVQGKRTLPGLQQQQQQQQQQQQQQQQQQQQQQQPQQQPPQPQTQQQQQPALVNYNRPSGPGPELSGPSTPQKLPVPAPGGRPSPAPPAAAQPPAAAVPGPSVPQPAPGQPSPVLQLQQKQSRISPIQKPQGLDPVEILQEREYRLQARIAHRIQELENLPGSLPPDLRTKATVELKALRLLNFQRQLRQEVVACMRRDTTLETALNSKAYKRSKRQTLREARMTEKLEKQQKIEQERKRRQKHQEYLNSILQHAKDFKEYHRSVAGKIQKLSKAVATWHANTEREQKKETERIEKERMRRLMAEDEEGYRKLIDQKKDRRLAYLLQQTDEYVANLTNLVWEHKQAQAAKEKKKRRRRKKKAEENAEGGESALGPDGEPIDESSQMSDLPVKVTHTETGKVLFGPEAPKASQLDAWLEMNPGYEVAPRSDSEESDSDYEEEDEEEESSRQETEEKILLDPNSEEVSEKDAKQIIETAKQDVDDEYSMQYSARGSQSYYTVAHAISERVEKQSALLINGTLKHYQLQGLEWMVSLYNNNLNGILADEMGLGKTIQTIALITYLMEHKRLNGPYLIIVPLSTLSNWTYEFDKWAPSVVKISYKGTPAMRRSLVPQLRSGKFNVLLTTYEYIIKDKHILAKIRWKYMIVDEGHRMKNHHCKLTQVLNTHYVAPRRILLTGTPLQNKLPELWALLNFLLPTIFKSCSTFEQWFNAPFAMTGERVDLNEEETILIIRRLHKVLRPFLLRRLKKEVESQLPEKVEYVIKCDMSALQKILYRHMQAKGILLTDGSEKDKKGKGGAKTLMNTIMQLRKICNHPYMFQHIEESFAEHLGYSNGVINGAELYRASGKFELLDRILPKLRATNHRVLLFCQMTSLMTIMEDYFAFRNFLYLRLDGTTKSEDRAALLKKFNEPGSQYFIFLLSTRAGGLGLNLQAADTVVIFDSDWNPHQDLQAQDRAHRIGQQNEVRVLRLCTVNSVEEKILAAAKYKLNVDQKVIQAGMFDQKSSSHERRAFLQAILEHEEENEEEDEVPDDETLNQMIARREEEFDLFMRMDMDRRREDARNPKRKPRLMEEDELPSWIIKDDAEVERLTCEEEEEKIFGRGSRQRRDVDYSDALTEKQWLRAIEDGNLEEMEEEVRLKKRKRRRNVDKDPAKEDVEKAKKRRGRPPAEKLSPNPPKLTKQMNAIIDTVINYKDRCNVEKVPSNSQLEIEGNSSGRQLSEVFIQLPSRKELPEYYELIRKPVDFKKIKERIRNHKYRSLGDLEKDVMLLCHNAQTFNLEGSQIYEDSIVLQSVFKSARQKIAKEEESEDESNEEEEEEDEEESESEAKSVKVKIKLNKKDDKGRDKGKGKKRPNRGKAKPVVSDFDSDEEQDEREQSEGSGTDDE

[16] = molecular target: Bromodomain adjacent to zinc finger domain protein 2B (Homo sapiens) (UniProt Q9UIF8); assay: Inhibition of BAZ2B (unknown origin) assessed as remaining activity
[17] = molecular target: Bromodomain and PHD finger-containing protein 3 (Homo sapiens) (UniProt Q9ULD4); assay: Inhibition of BRPF3 (unknown origin) assessed as remaining activity
[18] = molecular target: Bromodomain-containing protein 3 (Homo sapiens) (UniProt Q15059); assay: Inhibition of BRD3 BD2 (unknown origin) assessed as remaining activity
Chain of Bromodomain-containing protein 3 (Homo sapiens) (Q15059 2-726 limits assumed): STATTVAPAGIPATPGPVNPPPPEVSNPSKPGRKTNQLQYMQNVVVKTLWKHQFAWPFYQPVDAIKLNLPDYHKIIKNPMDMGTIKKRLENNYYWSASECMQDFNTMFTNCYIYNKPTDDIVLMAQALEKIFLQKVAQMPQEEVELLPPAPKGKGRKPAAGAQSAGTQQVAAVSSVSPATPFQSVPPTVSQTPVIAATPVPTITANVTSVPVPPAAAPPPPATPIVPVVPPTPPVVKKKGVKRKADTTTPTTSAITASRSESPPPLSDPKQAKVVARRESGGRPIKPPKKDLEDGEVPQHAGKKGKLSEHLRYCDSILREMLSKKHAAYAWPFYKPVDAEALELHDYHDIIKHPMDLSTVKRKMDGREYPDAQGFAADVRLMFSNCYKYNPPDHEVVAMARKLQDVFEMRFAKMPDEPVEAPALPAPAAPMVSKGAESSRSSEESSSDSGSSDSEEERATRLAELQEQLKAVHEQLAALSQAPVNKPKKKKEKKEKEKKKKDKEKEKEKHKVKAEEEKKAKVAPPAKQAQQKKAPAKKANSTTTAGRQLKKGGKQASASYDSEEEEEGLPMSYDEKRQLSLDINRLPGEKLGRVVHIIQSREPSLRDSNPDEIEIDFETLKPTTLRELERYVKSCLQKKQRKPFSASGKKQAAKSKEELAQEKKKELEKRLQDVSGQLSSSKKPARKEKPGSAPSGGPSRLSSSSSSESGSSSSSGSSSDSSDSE

[19] = molecular target: Bromodomain testis-specific protein (Homo sapiens) (UniProt Q58F21); assay: Inhibition of BRDT BD1 (unknown origin) assessed as remaining activity
[20] = molecular target: T1, Bromodomain-containing protein 4; assay: Inhibition of BRD4 BD2 (unknown origin) assessed as remaining activity
[21] = molecular target: Protein polybromo-1 (Homo sapiens) (UniProt Q86U86); assay: Inhibition of PBRM1 BD5 (unknown origin) assessed as remaining activity
[22] = molecular target: Bromodomain adjacent to zinc finger domain protein 2A (Homo sapiens) (UniProt Q9UIF9); assay: Inhibition of BAZ2A (unknown origin) assessed as remaining activity
[23] = molecular target: Bromodomain-containing protein 1 (Homo sapiens) (UniProt O95696); assay: Inhibition of BRD1 (unknown origin) assessed as remaining activity
[24] = Microsomal stability in mouse liver microsomes assessed as parent compound remaining measured after 30 mins; format: ADME, Microsome; conditions: read-out: Stability
[25] = molecular target: Bromodomain testis-specific protein (Homo sapiens) (UniProt Q58F21); assay: Inhibition of BRDT BD2 (unknown origin) assessed as remaining activity
[26] = Microsomal stability in human liver microsomes assessed as parent compound remaining measured after 30 mins; format: ADME, Microsome; conditions: read-out: Stability
Peregrin (Homo sapiens) = Peregrin (Homo sapiens) (UniProt P55201); assay: Inhibition of BRPF1 (unknown origin) assessed as remaining activity
[27] = molecular target: Transcription initiation factor TFIID subunit 1-like (Homo sapiens) (UniProt Q8IZX4); assay: Inhibition of TAF1L BD2 (unknown origin) assessed as remaining activity
[28] = molecular target: Histone acetyltransferase KAT2B (Homo sapiens) (UniProt Q92831); assay: Inhibition of PCAF (unknown origin) assessed as remaining activity
[29] = molecular target: Transcription initiation factor TFIID subunit 1 (Homo sapiens) (UniProt P21675); assay: Inhibition of TAF1 BD2 (unknown origin) assessed as remaining activity
[30] = molecular target: CREB-binding protein (Homo sapiens) (UniProt Q92793); assay: Inhibition of CREBBP (unknown origin) assessed as remaining activity
[31] = molecular target: Histone acetyltransferase p300 (Homo sapiens) (UniProt Q09472); assay: Inhibition of EP300 (unknown origin) assessed as remaining activity
[32] = molecular target: ATPase family AAA domain-containing protein 2B (Homo sapiens) (UniProt Q9ULI0); assay: Inhibition of ATAD2B (unknown origin) assessed as remaining activity
[33] = molecular target: Bromodomain-containing protein 2 (Homo sapiens) (UniProt P25440); assay: Inhibition of BRD2 BD1 (unknown origin) assessed as remaining activity
[34] = molecular target: Bromodomain-containing protein 3 (Homo sapiens) (UniProt Q15059); assay: Inhibition of BRD3 BD1 (unknown origin) assessed as remaining activity
[35] = molecular target: T1, Bromodomain-containing protein 4; assay: Inhibition of BRD4 BD1 (unknown origin) assessed as remaining activity

CN(C)S(=O)(=O)Nc1ccc(NCc2ccco2)nc1Nc1ccc2[nH]nnc2c1
IC50 [1]: 23 µM
IC50 [2]: 6.22 µM

CN(C)S(=O)(=O)Nc1ccc(NCCc2c[nH]c3ccccc23)nc1Nc1ccc2[nH]nnc2c1
IC50 [2]: 3.62 µM

CN(C)S(=O)(=O)Nc1ccc(NCCc2ccccc2)nc1Nc1ccc2[nH]nnc2c1
IC50 [2]: 5.25 µM

COCC(C)Nc1ccc(NS(=O)(=O)N(C)C)c(Nc2ccc3[nH]nnc3c2)n1 (stereo not given)
Activity [3]: 88%
Activity [4]: 67%
Activity [5]: 73%
Activity [6]: 92%
Activity [7]: 64%
Activity [8]: 19%
Activity [9]: 44%
Activity [10]: 44%
Activity [11]: 77%
Activity [12]: 98%
Activity [13]: 66%
IC50 [1]: 8.01 µM
Activity [14]: 75%
Activity [15]: 62%
Activity [16]: 84%
Activity [17]: 71%
Activity [18]: 35%
Activity [19]: 2.7%
IC50 [2]: 2.86 µM
Activity [20]: 22%
Activity [21]: 73%
Activity [22]: 82%
Activity [23]: 42%
remaining at 0.5 h [24]: 28%
Activity [25]: 32%
remaining at 0.5 h [26]: 32.9%
Activity (Peregrin (Homo sapiens)): 78%
Activity [27]: 86%
Activity [28]: 88%
Activity [29]: 31%
Activity [30]: 88%
Activity [31]: 82%
Activity [32]: 55%
Activity [33]: 0%
Activity [34]: 0.95%
Activity [35]: 0.45%

CCS(=O)(=O)Nc1ccc(NC(C)C)nc1Nc1ccc2[nH]nnc2c1
IC50 [1]: 4.47 µM
IC50 [2]: 3.86 µM

CC(C)Nc1ccc(NS(=O)(=O)c2ccc(F)cc2)c(Nc2ccc3[nH]nnc3c2)n1
IC50 [1]: 0.3 µM
IC50 [2]: 0.24 µM

CN(C)S(=O)(=O)Nc1ccc(NCc2ccccc2)nc1Nc1ccc2[nH]nnc2c1
IC50 [2]: 2.23 µM

CN(C)S(=O)(=O)Nc1ccc(NCc2ccc3c(c2)OCO3)nc1Nc1ccc2[nH]nnc2c1
IC50 [2]: 7.7 µM

CC(C)Nc1ccc(NS(=O)(=O)C(C)C)c(Nc2ccc3[nH]nnc3c2)n1
IC50 [1]: 1.24 µM
IC50 [2]: 1.12 µM

CC(C)Nc1ccc([N+](=O)[O-])c(Nc2ccc3c(c2)nnn3C)n1
IC50 [1]: 10.3 µM
IC50 [2]: 4.22 µM

CN(C)S(=O)(=O)Nc1ccc(NCCO)nc1Nc1ccc2[nH]nnc2c1
IC50 [1]: 8.25 µM
IC50 [2]: 5.7 µM

CN(C)S(=O)(=O)Nc1ccc(NCC2CCCO2)nc1Nc1ccc2[nH]nnc2c1 (stereo not given)
IC50 [1]: 8.42 µM
IC50 [2]: 9.6 µM

CN(C)S(=O)(=O)Nc1ccc(NCC(O)c2ccccc2)nc1Nc1ccc2[nH]nnc2c1 (stereo not given)
IC50 [1]: 5.11 µM
IC50 [2]: 5.59 µM

CC(C)Nc1ccc(NS(=O)(=O)c2c(F)cc(F)cc2F)c(Nc2ccc3[nH]nnc3c2)n1
IC50 [1]: 0.9 µM
IC50 [2]: 0.62 µM

CN(C)S(=O)(=O)Nc1ccc(NCc2ccc(F)cc2F)nc1Nc1ccc2[nH]nnc2c1
IC50 [1]: 11.3 µM
IC50 [2]: 7.64 µM

CC(C)Nc1ccc(NS(=O)(=O)c2c(F)cccc2F)c(Nc2ccc3[nH]nnc3c2)n1
IC50 [1]: 1.04 µM
IC50 [2]: 0.78 µM

CC(C)Nc1ccc([N+](=O)[O-])c(Nc2ccc3c(c2)nnn3S(=O)(=O)c2ccc(F)cc2)n1
IC50 [1]: 6.17 µM
IC50 [2]: 3.87 µM

CN(C)S(=O)(=O)Nc1ccc(N2C3CCC2COC3)nc1Nc1ccc2[nH]nnc2c1
IC50 [1]: 4.38 µM
IC50 [2]: 4.45 µM

CC(C)Nc1ccc(NC(=O)Nc2ccccc2)c(Nc2ccc3[nH]nnc3c2)n1
IC50 [1]: 10.2 µM
IC50 [2]: 6.89 µM

CC(C)Nc1ccc(NS(=O)(=O)c2ccc(F)cc2F)c(Nc2ccc3[nH]nnc3c2)n1
IC50 [1]: 0.72 µM
IC50 [2]: 0.8 µM

CN(C)S(=O)(=O)Nc1ccc(N2CCOCC2)nc1Nc1ccc2[nH]nnc2c1
IC50 [1]: 5.82 µM
IC50 [2]: 4.6 µM

CN(C)S(=O)(=O)Nc1ccc(NCc2ccc(F)cc2)nc1Nc1ccc2[nH]nnc2c1
IC50 [2]: 5.24 µM

C[C@H](Nc1ccc(NS(=O)(=O)N(C)C)c(Nc2ccc3[nH]nnc3c2)n1)[C@@H](c1ccccc1)N(C)C
IC50 [1]: 6.9 µM
IC50 [2]: 3.22 µM
